Source: patent publication US20230144385A1, “ETHANOLAMINE FORMULATION FOR TREATING EPITHELIAL OVARIAN CARCINOMA” (METANOI THERAPEUTICS, INC., priority 2020, published 2023)

How the values were obtained:
[1] = tested on: prostate cancer xenograft (PC-3-luc tumors); test: Prostate cancer xenograft model, oral treatment; type: in vivo, mice
From the text: FIG. 3. (Ai) Representative bioluminescent images of one animal per group indicating progression of tumor growth over 4 weeks in control and Etn-treated mice. (Aii) Tumor growth monitored (by vernier calipers) over a period of 4 weeks. (Aiii) Weight of tumors from control and Etn-treated mice.
The in vivo efficacy of this formulation was first examined (FIG. 3A). There was an ˜67% reduction in tumor volume (FIG. 3Aii) and ˜55% reduction in tumor weight (FIG. 3Aiii) after 4 weeks of treatment.

PC-3 cells [2] = test: Clonogenic survival assay, PC-3 cells; type: cell-based, human; conditions: 2 mg/mL, pH 7.4, PC-3 cells
Method: (§1) PhosE was ineffective in inhibiting proliferation and colony formation of these cell lines up to 100 mg/ml (data not shown).

[3] = tested on: MDA-MB-468, OVCAR-3, HCT116 and CFPAC cells; test: MTT dose-response on cancer cell lines from diverse tissues; type: cell-based
Method: as §1

PC-3 cells [4] = test: Intracellular Etn and PhosE levels in treated PC-3 cells; type: cell-based, human; conditions: PC-3 cells treated with Etn or PhosE
From the text: (§2) FIG. 2. […] (B) Effect of choline kinase inhibition on proliferation of PC-3 cells. (C) Intracellular PhosE level upon Etn treatment.

[5] = target: KIFC1/microtubule (MT) binary complex (Homo sapiens, UniProt Q9BW19); conditions: ATP-competitive, MT-noncompetitive; cited from earlier work
[6] = tested on: BT-549 breast cancer cells; conditions: BT-549 cells with amplified centrosomes; cited from earlier work
[7] = tested on: PC-3, DU145, C42B and RWPE-1 cells; test: MTT cell survival, prostate cancer lines versus normal prostate cells; type: cell-based; conditions: 0.5 and 1 mg/mL, 48 hours, pH 7.4
Method: as §1

PC-3 cells [8] = test: Oxygen consumption rate in PC-3 cells; type: cell-based, human
Method: (§3) FIG. 5. (A) Immunoblots of control and Etn-treated cell lysates for HIF1-α. […] Intracellular glucose (Ci) and glutamine (Cii) levels in control and Etn-treated tumors. (D) Effect of choline kinase inhibition on intracellular levels of glucose (Di) and glutamine (Dii) in Etn-treated cells.
(§4) It was hypothesized that PhosE accumulation alters HIF1-a expression/function that impairs glucose/glutamine metabolism leading to metabolic stress, which activates p53-induced cell death. […] OCR was measured in control and Etn-treated cells, and evaluated the glucose and glutamine content in (a) cultured cells and (b) tumors from control and Etn-treated mice. […] Inhibition of CK abrogated the Etn-mediated decrease in cellular glucose and glutamine content (FIGS. 5Di, ii).

PC-3 cells [9] = test: MTT cell survival/proliferation assay, PC-3 cells; type: cell-based, human; conditions: 48 hours, pH 7.4, compared with PhosE
Method: as §1

[10] = GI tract stability, Etn compared with PhosE; type: in vitro ADME; conditions: compared to PhosE
From the text: (§5) ADM E and pharmacological properties of orally-delivered PhosE and Etn [both phosphatidylethanolamine (PE) lipid precursors] were first compared. […] Our mechanistic studies identified CK overexpression—a hallmark of metabolic reprogramming in multiple cancer types—in prostate tumor cells compared to adjacent normal. […] It was hypothesize that an Etn-based formulation can be developed into a safe, selective, pharmacodynamically- and pharmacokinetically-favorable, IND entity that singly or synergistically with the ICI Nivolumab, provides a novel therapeutic option for chemo-resistant EOCs/OCCC.

HIF1-α = HIF1-α immunoblot of treated cell lysates; type: cell-based; conditions: Etn-treated cells
Method: as §3, §4

[11] = tested on: prostate cancer xenograft tumors; test: Glucose and glutamine content of tumors; type: in vivo, mice; conditions: versus control
Method: as §3, §4

[12] = tested on: prostate cancer xenograft tumors; test: TEM and LC/MS-MS lipidomics of xenograft tumors; type: in vivo, mice
From the text: FIG. 6. […] Ultra-thin sections were cut on Boeckeler MTx ultramicrotome, counterstained with lead citrate, and examined on a LEO 906e TEM. Mitochondria and accumulated lipid granules are highlighted by red arrows. […] Left panels, scale bar ¼2 […]; right panels, scale bar ¼5 mm. […] Levels of PE (i), PS (ii), PC (iii), and SM (iv) lipids in control and Etn-treated tumors. In the abbreviation of lipid, 1st and 2nd numbers denote the number of carbon atoms and unsaturated bonds present in the lipid, respectively. Lipid amounts were quantified by LC/MS-MS. Values and error bars shown represent mean and SE, respectively.
Lipidomic analyses of tumors from control and Etn-treated groups quantified 402 lipids from various lipid classes such as phosphatidylethanolamine (PE), phosphatidylcholine (PC), phosphatidylserine (PS), lysophospholipids, ceramides, and sphingomyelin (SM). Levels of 21 PE lipids (FIG. 6Bi), and other lipids from the PS (FIG. 6Bii), PC (FIG. […]), and SM (FIG. 6Biv) classes were increased in Etn-treated tumors. Thus, PhosE and phospholipid accumulation downregulates HIF-1α, precipitates a bioenergetics/metabolic crisis, activates p53-mediated signaling and culminates in cell death.

CYP = test: CYP-related drug-drug interaction liability; type: in vitro ADME
From the text: as §5

PC-3 cells [13] = test: Annexin V flow cytometry, PC-3 cells; type: cell-based, human
PC-3 cells [14] = test: Immunoblots of cell cycle and apoptosis markers in PC-3 cell lysates; type: cell-based, human
From the text: (§6) FIG. 4. (A) Immunoblots of control and Etn-treated cell lysates for pRb, cdk4, cdk2, p21, c-PARP, Bim, Bcl-2 and β actin. […] (C) Immunoblots of control and Etn-treated tumors lysates for p53, p21, Bax, pBcl-2, c-PARP, Bim, Bid and β actin. (D) Micrographs showing IHC staining of Ki67 and c-PARP in control and Etn-treated prostate cancer xenografts.

[15] = tested on: prostate cancer xenografts; test: Immunoblots and IHC of xenograft tumors; type: in vivo, mice
From the text: as §6

PC-3 cells [16] = test: PC-3 survival on Etn treatment with or without choline kinase inhibitor; type: cell-based, human; conditions: with CK inhibition
From the text: as §2

cultured cells = test: Glucose and glutamine content of cultured cells; type: cell-based; conditions: versus control
Method: as §3, §4

FR1 = FR1 (Homo sapiens, UniProt P15328); conditions: read-out: affinity; cited from earlier work
FR2 = FR2 (Homo sapiens, UniProt P14207); conditions: read-out: affinity; cited from earlier work
[17] = 40 mg/kg Etn, pH=5.0, oral, after 4 weeks

FR2, sequence (P14207 17-230): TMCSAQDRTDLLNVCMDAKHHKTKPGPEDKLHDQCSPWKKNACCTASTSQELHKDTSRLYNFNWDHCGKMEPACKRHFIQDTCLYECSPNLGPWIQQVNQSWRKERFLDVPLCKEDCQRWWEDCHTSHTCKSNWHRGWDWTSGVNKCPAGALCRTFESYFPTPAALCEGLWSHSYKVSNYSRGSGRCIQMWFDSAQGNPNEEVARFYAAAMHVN
FR1, sequence (P15328 25-234): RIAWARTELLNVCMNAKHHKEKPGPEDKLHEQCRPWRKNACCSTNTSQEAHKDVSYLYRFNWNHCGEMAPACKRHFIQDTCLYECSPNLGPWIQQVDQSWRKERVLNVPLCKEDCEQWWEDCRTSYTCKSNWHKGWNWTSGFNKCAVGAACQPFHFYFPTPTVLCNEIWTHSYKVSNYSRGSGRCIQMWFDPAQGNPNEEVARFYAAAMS
KIFC1/microtubule (MT) binary complex, sequence (Q9BW19 whole entry, species assumed): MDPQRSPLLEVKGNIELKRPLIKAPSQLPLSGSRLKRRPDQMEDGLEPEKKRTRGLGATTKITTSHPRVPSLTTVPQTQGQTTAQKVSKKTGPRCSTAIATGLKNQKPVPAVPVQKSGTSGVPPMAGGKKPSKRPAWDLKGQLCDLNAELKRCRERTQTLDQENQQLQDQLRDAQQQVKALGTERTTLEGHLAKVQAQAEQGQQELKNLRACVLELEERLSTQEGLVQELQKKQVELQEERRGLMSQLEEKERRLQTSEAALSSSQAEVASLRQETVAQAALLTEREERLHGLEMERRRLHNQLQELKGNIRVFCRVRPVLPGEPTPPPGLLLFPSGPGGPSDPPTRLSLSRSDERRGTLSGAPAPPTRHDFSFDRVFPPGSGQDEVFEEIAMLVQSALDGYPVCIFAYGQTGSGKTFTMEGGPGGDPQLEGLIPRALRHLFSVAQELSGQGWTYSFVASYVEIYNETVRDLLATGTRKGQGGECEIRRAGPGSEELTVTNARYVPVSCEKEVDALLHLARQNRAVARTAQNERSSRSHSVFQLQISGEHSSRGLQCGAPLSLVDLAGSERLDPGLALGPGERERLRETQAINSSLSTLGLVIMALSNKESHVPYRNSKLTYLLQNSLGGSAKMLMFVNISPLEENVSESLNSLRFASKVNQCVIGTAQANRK
KIFC1/microtubule (MT) binary complex, sequence (P68363 whole entry partner, species assumed): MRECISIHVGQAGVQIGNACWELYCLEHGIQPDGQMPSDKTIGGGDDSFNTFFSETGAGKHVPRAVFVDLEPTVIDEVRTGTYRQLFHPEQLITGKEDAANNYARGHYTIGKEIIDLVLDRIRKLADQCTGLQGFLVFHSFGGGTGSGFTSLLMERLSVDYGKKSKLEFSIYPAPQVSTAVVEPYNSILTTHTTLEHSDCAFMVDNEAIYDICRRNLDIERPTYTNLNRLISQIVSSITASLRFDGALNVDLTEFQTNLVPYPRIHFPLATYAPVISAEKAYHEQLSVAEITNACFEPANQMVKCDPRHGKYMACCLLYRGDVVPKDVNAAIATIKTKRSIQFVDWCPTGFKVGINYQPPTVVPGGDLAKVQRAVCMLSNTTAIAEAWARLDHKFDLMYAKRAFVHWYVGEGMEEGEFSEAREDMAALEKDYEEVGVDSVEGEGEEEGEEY
KIFC1/microtubule (MT) binary complex, sequence (Q9BVA1 whole entry partner, species assumed): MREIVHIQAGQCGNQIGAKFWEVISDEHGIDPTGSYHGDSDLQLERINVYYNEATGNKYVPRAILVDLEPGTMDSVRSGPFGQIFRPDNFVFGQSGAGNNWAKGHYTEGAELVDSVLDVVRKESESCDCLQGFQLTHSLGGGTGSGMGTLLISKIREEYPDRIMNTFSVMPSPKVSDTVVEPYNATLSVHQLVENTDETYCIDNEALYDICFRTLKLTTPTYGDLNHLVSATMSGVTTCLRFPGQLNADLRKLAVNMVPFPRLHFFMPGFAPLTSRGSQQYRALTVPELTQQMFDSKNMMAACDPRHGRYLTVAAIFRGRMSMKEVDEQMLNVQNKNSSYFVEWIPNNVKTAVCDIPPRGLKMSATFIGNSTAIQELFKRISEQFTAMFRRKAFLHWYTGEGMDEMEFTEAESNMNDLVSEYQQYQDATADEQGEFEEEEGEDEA

In the case of `NCCOP(=O)(O)O` [PhosE, phosphoethanolamine, reference compound], the “inhibition of tumor growth compared with Etn” value ([1]; orally delivered formulations) is reported as “less effective than Etn”, the “decrease in colony numbers” value (PC-3 cells [2]) is reported as “ineffective in decreasing colony numbers” and the “inhibition of proliferation and colony formation” value ([3]; up to 100 mg/ml, data not shown) is reported as “ineffective”. The “intracellular PhosE levels” value (PC-3 cells [4]) was “increased intracellular PhosE levels”.

For `CCCc1cc(C(=O)N[C@H](Cc2ccc(-c3cccc(OC(F)(F)F)c3)nc2)C(=O)N[C@@H]2CCNC2)sc1C` [AZ82], the Ki [5] is listed as 0.043 µM and the centrosome declustering [6] is listed as “causes centrosome declustering”.

With `NCCO` [Etn, Monoethanolamine] the “reduction of viability, prostate cancer lines versus normal prostate cells” value [7] was “more effective in reducing viability of prostate cancer lines”, the body weight ([1]; 40 mg/kg Etn, oral, over 4 weeks) was “no change in body weight” and the “reduction in tumor volume” value [1, 17] was roughly 67%. For the same compound, the “reduction in tumor weight” value [1, 17] was roughly 55%, the “intratumoral Etn” value ([1]; after 4 weeks of Etn treatment) was “no significant change” and the “intratumoral PhosE level versus controls” value ([1]; after 4 weeks of Etn treatment) was roughly 38%. For the same compound, the “oxygen consumption rate (OCR)” value (PC-3 cells [8]) was “decreased OCR”, the “inhibition of PC-3 cell proliferation” value (PC-3 cells [9]) was “more effective” and the GI tract stability [10] was “better GI tract stability”. The HIF1-a expression (HIF1-α) was “strongly downregulated”, the glucose content [11] was “significantly reduced” and the glutamine content [11] was “significantly reduced”. The “mitochondrial morphology (TEM)” value ([12]; 40 mg/kg Etn-treated tumors versus controls) was “elongated mitochondria with highly degraded matrices”, the “levels of PE, PS, PC and SM lipids” value ([12]; Etn-treated tumors, LC/MS-MS) was “increased” and the “CYP-related drug-drug interaction liability” value (CYP) was “lacked CYP-related drug-drug interaction liability”. For the same compound, the “annexin-V positive apoptotic cells” value (PC-3 cells [13]) was “increased the number of annexin-V positive apoptotic cells”, the “decrease in colony numbers” value (PC-3 cells [2]) was roughly 97% and the inhibition of proliferation ([3]; breast, ovary, colon and pancreas cell lines) was “inhibited proliferation in all the cell lines tested”. The “apoptosis markers (c-PARP, Bim, Bcl-2)” value (PC-3 cells [14]) was “increased levels of proapoptotic markers such as c-PARP and Bim, and decreased antiapoptotic molecules such as Bcl-2”, the “cell cycle markers (pRb, Cdk4, Cdk2, p21)” value (PC-3 cells [14]) was “downregulated pRb, Cdk4, and Cdk2, and upregulated p21” and the “tumor lysate markers (p53, p21, Bax, pBcl2, c-PARP, Bim, Bid)” value ([15]; 40 mg/kg Etn) was “upregulation of p53, p21, Bax, pBcl2, c-PARP, Bim and Bid”. The “Ki67 and c-PARP expression (IHC) in tumors” value ([15]; treated versus control tumors) was “marked decrease in Ki67 expression and increase in c-PARP expression”, the “antiproliferative activity in presence of CK inhibitor” value (PC-3 cells [16]) was “significantly attenuated” and the “conversion of Etn into PhosE in presence of CK inhibitor” value (PC-3 cells [16]) was “reduced conversion of Etn into PhosE”. For the same compound, the “intracellular PhosE levels” value (PC-3 cells [4]) was “more pronounced”, the glucose content (cultured cells) was “significantly reduced” and the glutamine content (cultured cells) was “significantly reduced”.

For `CN1c2c(nc(N)[nH]c2=O)NC[C@@H]1CNc1ccc(C(=O)N[C@@H](CCC(=O)O)C(=O)O)cc1` [6S 5-methyltetrahydrofolate], the Kd (FR1) is given as 0.055 µM and the Kd (FR2) is given as 0.001 µM.
